What was measured:
cyclooxygenase = assay: Cyclooxygenase inhibiting effect; assay type: biochemical; settings: seminal vasicular gland microsomes, 14C-arachidonic acid, prostaglandin E2 formation
Procedure: (1) Cyclooxygenase inhibiting effect
This assay was carried out by the method described in Russell J. Taylor et al., Biochem. Pharmacol., 25, 2479-2484 (1976).
^14 C-arachidonic acid was reacted with seminal vasicular gland microsomes and the test drugs at various concentrations over a predetermined period of time and the obtained prostaglandin E2 was separated by thin layer chromatography. The radioactivity of prostaglandin E2 was determined by liquid scintillation counter. The IC50 values were calculated by the comparison with the radioactivity of the control.

5-Lipoxygenase = target: T1, 5-Lipoxygenase (Cavia porcellus, UniProt A0A286X958); assay: 5-Lipoxygenase inhibiting activity; assay type: biochemical; settings: cytosol fraction of guinea pig polymorphonuclear leucocytes, 14C-arachidonic acid, 5-hydroxyeicosatetraenoic acid formation
T1 construct: the polymorphonuclear leucocytes were collected and the cytosol fraction was obtained as an enzyme source; endogenous in cells; host or cells: guinea pig peritoneal polymorphonuclear leucocytes, cytosol fraction
T1 sequence (A0A286X958 1-674): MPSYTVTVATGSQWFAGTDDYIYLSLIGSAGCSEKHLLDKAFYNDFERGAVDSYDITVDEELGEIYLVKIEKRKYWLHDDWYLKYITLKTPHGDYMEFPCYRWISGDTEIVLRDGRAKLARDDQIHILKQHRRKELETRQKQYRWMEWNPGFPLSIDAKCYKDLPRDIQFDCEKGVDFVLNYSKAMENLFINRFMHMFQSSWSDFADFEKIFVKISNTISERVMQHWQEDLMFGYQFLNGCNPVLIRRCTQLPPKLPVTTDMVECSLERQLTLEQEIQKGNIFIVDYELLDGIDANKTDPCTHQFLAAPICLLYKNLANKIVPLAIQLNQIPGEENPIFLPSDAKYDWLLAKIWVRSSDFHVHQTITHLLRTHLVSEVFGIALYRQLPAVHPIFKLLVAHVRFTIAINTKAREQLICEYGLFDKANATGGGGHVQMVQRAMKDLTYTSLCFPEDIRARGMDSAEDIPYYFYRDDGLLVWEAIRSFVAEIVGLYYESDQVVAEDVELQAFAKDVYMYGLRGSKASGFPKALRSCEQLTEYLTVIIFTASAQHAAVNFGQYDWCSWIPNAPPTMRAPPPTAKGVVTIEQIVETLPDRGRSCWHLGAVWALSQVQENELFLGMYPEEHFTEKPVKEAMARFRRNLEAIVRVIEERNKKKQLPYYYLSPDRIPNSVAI
Procedure: (2) 5-Lipoxygenase inhibiting activity
This assay was carried out by the method described in Kenkichi Ochi et al., J. Biol. Chem., 258, 5754-5758 (1983).
Casein was injected into the abdominal cavity of a guinea pig, and the polymorphonuclear leucocytes were collected and the cytosol fraction was obtained as an enzyme source. ^14 C-arachidonic acid was reacted with the enzyme and the test drug at various concentrations over a predetermined period of time. The obtained 5-hydroxyeicosatetraenoic acid was separated by thin layer chromatography and the radioactivity was determined. The IC^50 values were calculated by the comparison with the radioactivity of the control.

IC50 (cyclooxygenase) [nM]	IC50 (5-Lipoxygenase) [nM]	Compound
100	670	COc1ccc(-c2noc(CCNC(=O)/C=C/c3cc(OC)c(O)c(OC)c3)c2-c2ccc(OC)cc2)cc1 [Compound 10]
140	55	COc1ccc(-c2noc(CCCC(=O)/C=C/c3ccc(O)c(O)c3)c2-c2ccc(OC)cc2)cc1 [Compound 38]
50	110	COc1ccc(-c2noc(CNC(=O)/C=C/C=C/c3ccc(O)c(OC)c3)c2-c2ccc(OC)cc2)cc1 [Compound 15]
66	62	COc1ccc(-c2noc(CCOC(=O)/C=C/c3ccc(O)c(O)c3)c2-c2ccc(OC)cc2)cc1 [Compound 4]
100	113	COc1ccc(-c2noc(CCNC(=O)/C=C/c3ccc(O)c(O)c3)c2-c2ccc(OC)cc2)cc1 [Compound 5]
1310	180	COc1ccc(-c2noc(CCCC(=O)/C=C/c3cc(OC)c(O)c(OC)c3)c2-c2ccc(OC)cc2)cc1 [Compound 39]
2600	110	Cc1ccc(-c2noc(CCNC(=O)/C=C/c3ccc(O)c(O)c3)c2-c2ccc(C)cc2)cc1 [Compound 7]
1500	86	COc1ccc(-c2c(-c3ccc(Cl)cc3)noc2CCNC(=O)/C=C/c2ccc(O)c(O)c2)cc1 [Compound 8]
240	3030	COc1ccc(-c2noc(CCCC(=O)/C=C/c3cc(C)c(O)c(C)c3)c2-c2ccc(OC)cc2)cc1 [Compound 40]
< 10	130	COc1ccc(-c2noc(CCNC(=O)/C=C/C=C/c3c(OC)cc(O)cc3OC)c2-c2ccc(OC)cc2)cc1 [Compound 14]
2600	100	O=C(/C=C/c1ccc(O)c(O)c1)NCCc1onc(-c2ccccc2)c1-c1ccccc1 [Compound 6]
10	50	COc1ccc(-c2noc(CCNC(=O)/C=C/C=C/c3cc(OC)c(O)c(OC)c3)c2-c2ccc(OC)cc2)cc1 [Compound 13]
290	230	COc1ccc(-c2noc(CNC(=O)/C=C/C=C/c3cc(OC)c(O)c(OC)c3)c2-c2ccc(OC)cc2)cc1 [Compound 16]
30	630	COc1ccc(-c2noc(CCNC(=S)/C=C/c3ccc(O)c(OC)c3)c2-c2ccc(OC)cc2)cc1 [Compound 48]
280	390	COc1ccc(-c2noc(C(=O)/C=C/C=C/c3ccc(O)c(OC)c3)c2-c2ccc(OC)cc2)cc1 [Compound 46]
15	240	COc1ccc(-c2noc(CCNC(=O)/C=C/C=C/c3ccc(O)c(OC)c3)c2-c2ccc(OC)cc2)cc1 [Compound 12]

Source: patent publication US5399577A, “Isoxazole derivatives and salts thereof” (Taiho Pharmaceutical Co., Ltd., priority 1991, dated 1995)
